These compounds were tested against T1, β-glucocerebrosidase (Homo sapiens, UniProt P04062, L483P) (assay: Enhancement of β-glucocerebrosidase activity measured in Gaucher disease fibroblasts (4-MU-β-D-glucopyranoside substrate, intact cells)). Details: GBA fibroblasts bearing L444P (GM08760A, homozygous p.L444P); compound at concentrations between 6 and 50 μM; 4 days incubation.
T1 construct: host or cells: human Gaucher disease patient fibroblasts GM08760A
T1 sequence (P04062 40-536 L483P): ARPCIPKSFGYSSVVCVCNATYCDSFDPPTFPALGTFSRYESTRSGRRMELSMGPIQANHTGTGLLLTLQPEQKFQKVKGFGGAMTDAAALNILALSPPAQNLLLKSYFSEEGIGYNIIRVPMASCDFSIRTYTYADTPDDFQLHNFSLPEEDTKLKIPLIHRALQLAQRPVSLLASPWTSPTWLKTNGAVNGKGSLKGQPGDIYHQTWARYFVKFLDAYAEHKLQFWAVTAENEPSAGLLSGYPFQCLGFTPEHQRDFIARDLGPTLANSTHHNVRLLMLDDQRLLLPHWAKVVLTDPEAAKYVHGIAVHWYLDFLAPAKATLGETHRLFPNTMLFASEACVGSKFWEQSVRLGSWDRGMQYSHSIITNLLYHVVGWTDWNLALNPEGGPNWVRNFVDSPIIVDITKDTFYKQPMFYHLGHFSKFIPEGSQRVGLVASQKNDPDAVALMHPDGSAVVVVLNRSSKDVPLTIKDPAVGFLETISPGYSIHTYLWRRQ
Assay type: cell-based
Set-up: key: Increase in comparison with non-treated of >2.0 fold is shown as A; Increase in comparison with non-treated of >1.7-2.0 fold is shown as B; Increase in comparison with non-treated of 1.2-1.7 fold is shown as C; D means that no increase compared with non-treated cells was detected in this method
Method: Human fibroblasts from a patient with Gaucher disease homozygous for p.L444P mutation (GM08760A) were purchased from Coriell Institute for Medical Research (Camden, NJ, USA).
Fibroblasts were seeded at 5×10^3 cells per well in 96-well cell culture plates (Corning, NY, USA) in Dulbecco's Modified Eagle's Media (DMEM) supplemented with 10% of fetal bovine serum (FBS), 1% penicillin/streptomycin (P/S) (Thermo Fisher Scientific, Waltham, MA, USA) and grown at 37° C., 5% CO2 overnight for cell attachment. Subsequently, cells were incubated in the absence or presence of the compounds at the desired concentration for 4 days. After incubation, cells were washed twice with phosphate-buffered saline (PBS) and enzyme activity assay was performed.
β-glucocerebrosidase activity in intact cultured cells was measured by using 4-methylumbelliferyl-β-D-glucopyranoside substrate (Apollo Scientific, UK). Briefly, cells were incubated with 4-MU-β-D-glucopyranoside in 0.1 M acetate buffer pH=4 at 37° C. for 1 hour. The reaction was stopped by adding 200 μL at 100 mM glycine-NaOH pH=10.7. The liberated 4-MU was measured on a GloMax Discover plate reader (Promega, Madison, WI, USA) with and excitation at 340 nm and emission at 460 nm. Enzyme activities were expressed in treated cells as X-fold increase in comparison with non-treated cells (X=1 represents no enhancement).
The capacity of the compounds of the disclosure to produce an increase in enzyme activity in GBA fibroblasts bearing L444P at concentrations between 6 and 50 μM is denoted as follows: • Increase in comparison with non-treated of >2.0 fold is shown as A • Increase in comparison with non-treated of >1.7-2.0 fold is shown as B • Increase in comparison with non-treated of 1.2-1.7 fold is shown as C • D means that no increase compared with non-treated cells was detected in this method • ND means “not determined”

SMILES | Range: increase in enzyme activity in comparison with non-treated cells (Enzyme activity assay for compounds of Examples 33-141) | Range: increase in enzyme activity in comparison with non-treated cells (Enzyme activity assay for exemplified compounds)
Nc1cc(Nc2cccc(O)c2)nc(C(=O)NC2Cc3ccccc3C2)c1 [Example 112, 4-Amino-N-(2,3-dihydro-1H-inden-2-yl)-6-((3-hydroxyphenyl)amino)picolinamide] | A (Increase in comparison with non-treated of >2.0 fold is shown as A) | –
Nc1cc(Nc2ccccc2O)cc(C(=O)N2CCc3ccccc3C2)n1 [Example 49, (6-Amino-4-((2-hydroxyphenyl)amino)pyridin-2-yl)(3,4-dihydroisoquinolin-2(1H)-yl)methanone] | B (Increase in comparison with non-treated of >1.7-2.0 fold is shown as B) | –
CN(C(=O)c1cc(N)nc(Nc2ccccc2O)n1)c1ccccc1 [Example 5, 6-Amino-2-((2-hydroxyphenyl)amino)-N-methyl-N-phenylpyrimidine-4-carboxamide] | – | C (Increase in comparison with non-treated of 1.2-1.7 fold is shown as C)
COc1ccccc1Nc1cc(N)cc(C(=O)N(C)c2ccccc2)n1 [Example 113, 6-(2-Methoxyphenylamino)-4-amino-N-methyl-N-phenylpyridine-2-carboxamide] | C (Increase in comparison with non-treated of 1.2-1.7 fold is shown as C) | –
Cc1cccc(NC(=O)c2cc(N)cc(Nc3cccc(F)c3)n2)c1.Cl [Example 136, 4-Amino-6-((3-fluorophenyl)amino)-N-(m-tolyl)picolinamide hydrochloride] | A (Increase in comparison with non-treated of >2.0 fold is shown as A) | –
CN(C(=O)c1cc(N)cc(Nc2ccccc2O)n1)c1ccccc1 [Example 110, 4-Amino-6-((2-hydroxyphenyl)amino)-N-methyl-N-phenylpicolinamide] | C (Increase in comparison with non-treated of 1.2-1.7 fold is shown as C) | –
COc1cccc(Nc2nc(N)cc(C(=O)N3CCN(c4ccccc4)CC3)n2)c1 [Example 2, (6-Amino-2-((3-methoxyphenyl)amino)pyrimidin-4-yl)(4-phenylpiperazin-1-yl)methanone] | – | C (Increase in comparison with non-treated of 1.2-1.7 fold is shown as C)
Nc1nc(Nc2ccccc2O)nc2c1CCN(Cc1ccccc1)C2 [Example 29, 2-((4-Amino-7-benzyl-5,6,7,8-tetrahydropyrido[3,4-d]pyrimidin-2-yl)amino)phenol] | – | B (Increase in comparison with non-treated of >1.7-2.0 fold is shown as B)
Nc1cc(Nc2cccc(F)c2)nc(C(=O)N2CCN(c3ccccc3)CC2)c1 [Example 105, (4-Amino-6-((3-fluorophenyl)amino)pyridin-2-yl)(4-phenylpiperazin-1-yl)methanone] | B (Increase in comparison with non-treated of >1.7-2.0 fold is shown as B) | –
CN(C(=O)c1nc(N)nc(Nc2cccc(Br)c2)n1)c1ccccc1 [Example 18, 4-Amino-6-((3-bromophenyl)amino)-N-methyl-N-phenyl-1,3,5-triazine-2-carboxamide] | – | D
CN(C(=O)c1cc(N)nc(Nc2ccccc2O)c1)c1ccccc1 [Example 43, 2-Amino-6-((2-hydroxyphenyl)amino)-N-methyl-N-phenylisonicotinamide] | C (Increase in comparison with non-treated of 1.2-1.7 fold is shown as C) | –
COc1ccc(Nc2nc(N)nc3c2CCN(Cc2ccccc2)C3)cc1 [Example 26, 7-Benzyl-N4-(4-methoxyphenyl)-5,6,7,8-tetrahydropyrido[3,4-d]pyrimidine-2,4-diamine] | – | C (Increase in comparison with non-treated of 1.2-1.7 fold is shown as C)
Nc1nc(Nc2cccc(Br)c2)nc(C(=O)N2CCN(c3ccccc3)CC2)n1 [Example 16, (4-Amino-6-((3-bromophenyl)amino)-1,3,5-triazin-2-yl)(4-phenylpiperazin-1-yl)methanone] | – | C (Increase in comparison with non-treated of 1.2-1.7 fold is shown as C)
Nc1cc(C(=O)N2CCc3ccccc3C2)nc(Nc2ccccc2O)n1 [Example 35, (6-Amino-2-((2-hydroxyphenyl)amino)pyrimidin-4-yl)(3,4-dihydroisoquinolin-2(1H)-yl)methanone] | C (Increase in comparison with non-treated of 1.2-1.7 fold is shown as C) | –
Nc1cc(Nc2cccc(F)c2)nc(C(=O)N2Cc3ccccc3C2)c1 [Example 116, (6-(3-Fluorophenylamino)-4-aminopyridin-2-yl)(isoindolin-2-yl)methanone] | C (Increase in comparison with non-treated of 1.2-1.7 fold is shown as C) | –
CN(C(=O)c1cc(N)cc(Nc2ccccc2F)n1)C1Cc2ccccc2C1.Cl [Example 132, 4-Amino-N-(2,3-dihydro-1H-inden-2-yl)-6-((2-fluorophenyl)amino)-N-methylpicolinamide hydrochloride] | C (Increase in comparison with non-treated of 1.2-1.7 fold is shown as C) | –
Nc1cc(C(=O)N2Cc3ccccc3C2)nc(Nc2cccc(Cl)c2)n1 [Example 41] | D | –
Nc1cc(Nc2ccccc2F)cc(C(=O)N2CCN(c3ccccc3)CC2)n1 [Example 62] | D | –
COc1ccccc1Nc1cc(N)nc(C(=O)NC2CCc3ccccc3C2)c1 (stereo not drawn) [Example 52, 6-Amino-4-((2-methoxyphenyl)amino)-N-(1,2,3,4-tetrahydronaphthalen-2-yl)picolinamide] | B (Increase in comparison with non-treated of >1.7-2.0 fold is shown as B) | –
CN(C(=O)c1cc(N)cc(Nc2ccccc2O)n1)C1Cc2ccccc2C1.Cl [Example 131, 4-Amino-N-(2,3-dihydro-1H-inden-2-yl)-6-((2-hydroxyphenyl)amino)-N-methyl-picolinamide hydrochloride] | C (Increase in comparison with non-treated of 1.2-1.7 fold is shown as C) | –
Nc1cc(Nc2ccccc2F)nc(C(=O)NC2Cc3ccccc3C2)c1 [Example 71, 4-Amino-N-(2,3-dihydro-1H-inden-2-yl)-6-((2-fluorophenyl)amino)picolinamide] | B (Increase in comparison with non-treated of >1.7-2.0 fold is shown as B) | –
CN(C(=O)c1cc(N)cc(Nc2cccc(F)c2)n1)c1ccccc1 [Example 115, 6-(3-Fluorophenylamino)-4-amino-N-methyl-N-phenylpyridine-2-carboxamide] | C (Increase in comparison with non-treated of 1.2-1.7 fold is shown as C) | –
Nc1cc(Nc2ccccc2O)cc(C(=O)N2CCc3ccccc32)n1 [Example 64, (6-Amino-4-((2-hydroxyphenyl)amino)pyridin-2-yl)(indolin-1-yl)methanone] | C (Increase in comparison with non-treated of 1.2-1.7 fold is shown as C) | –
Nc1cc(C(=O)N2CCCc3ccccc32)nc(Nc2ccccc2O)n1 [Example 36, (6-Amino-2-((2-hydroxyphenyl)amino)pyrimidin-4-yl)(3,4-dihydroquinolin-1(2H)-yl)methanone] | C (Increase in comparison with non-treated of 1.2-1.7 fold is shown as C) | –

Source: US12661342B2, “Heteroaryl compounds and therapeutic uses thereof in conditions associated with the alteration of the activity of beta-glucocerebrosidase” (GT GAIN THERAPEUTICS SA, priority 2019, dated 2026)
